Data reported in US11339161B2, “Triazolo pyridines as modulators of gamma-secretase” (Boehringer Ingelheim International GmbH, priority 2017, dated 2022).
Like-named read-outs stand apart in the source and are kept apart here.

What was measured:
FGFR2 = FGFR2 (Homo sapiens, UniProt P21802); test: Z'-LYTE SelectScreen biochemical kinase assay FGFR2
From the text: (§1) Thermo Fisher Scientific SelectScreen™ Biochemical Kinase Profiling Service Z′-LYTE™ Screening Protocol and Assay Conditions Assay Theory
(§2) The […] biochemical assay employs a fluorescence-based, coupled-enzyme format and is based on the differential sensitivity of phosphorylated and non-phosphorylated peptides to proteolytic cleavage. The peptide substrate is labeled with two fluorophores—one at each end—that make up a FRET pair. In the primary reaction, the kinase transfers the gamma-phosphate of ATP to a single tyrosine, serine or threonine residue in a synthetic FRET-peptide. In the secondary reaction, a site-specific protease recognizes and cleaves non-phosphorylated FRET-peptides. Phosphorylation of FRET-peptides suppresses cleavage by the Development Reagent. Cleavage disrupts FRET between the donor (i.e., coumarin) and acceptor (i.e., fluorescein) fluorophores on the FRET-peptide, whereas uncleaved, phosphorylated FRET-peptides maintain FRET. A ratiometric method, which calculates the ratio (Emission Ratio=Coumarin emission (445 nm)/Fluorescein emission (520 nm)) of donor emission to acceptor emission after excitation of the donor fluorophore at 400 nm, is used to quantitate reaction progress, as shown in the equation below. A significant benefit of this ratiometric method for quantitating reaction progress is the elimination of well-to-well variations in FRET-peptide concentration and signal intensities. As a result, the assay yields very high Z′-factor values (>0.7) at a low percent phosphorylation. Both cleaved and uncleaved FRET-peptides contribute to the fluorescence signals and therefore to the Emission Ratio. The extent of phosphorylation of the FRET-peptide can be calculated from the Emission Ratio. The Emission Ratio will remain low if the FRET-peptide is phosphorylated (i.e., no kinase inhibition) and will be high if the FRET-peptide is non-phosphorylated (i.e., kinase inhibition).
(§3) The Test Compounds are screened in 1% DMSO (final) in the well. For 10 point titrations, 3-fold serial dilutions are conducted from the starting concentration of the customer's choosing.
(§4) All Peptide/Kinase Mixtures are diluted to a 2× working concentration in the appropriate Kinase Buffer (see section Kinase Specific Assay Conditions for a complete description).
(§5) All ATP Solutions are diluted to a 4× working concentration in Kinase Buffer (50 mM HEPES pH 7.5, 0.01% BRIJ-35, 10 mM MgCl2, 1 mM EGTA). ATP Km apparent is previously determined using a Z″-LYTE assay.
(§6) The Development Reagent is diluted in Development Buffer (see section Kinase-Specific Assay Conditions—Direct and Cascade for a complete description).
(§7) Bar-coded Corning, low volume NBS, black 384-well plate (Corning Cat. #4514) • 1. 100 nL—100× Test Compound in 100% DMSO • 2. 2.4 μL—Kinase buffer • 3. 5 μL—2× Peptide/Kinase Mixture • 4. 2.5 μL—4×ATP Solution • 5. 30—second plate shake • 6. 60—minute Kinase Reaction incubation at room temperature • 7. 5 μL—Development Reagent Solution • 8. 30—second plate shake • 9. 60—minute Development Reaction incubation at room temperature • 10. Read on fluorescence plate reader and analyze the data Z′-LYTE Assay Controls
(§8) SelectScreen Kinase Profiling Service uses XLfit from IDBS. The dose response curve is curve fit to model number 205 (sigmoidal dose-response model).
The 2×FGFR2/Tyr 04 mixture is prepared in 50 mM HEPES pH 7.5, 0.01% BRIJ-35, 10 mM MgCl2, 4 mM MnCl2, 1 mM EGTA, 2 mM DTT. The final 10 μL Kinase Reaction consists of 0.19-1.99 ng FGFR2 and 2 μM Tyr 04 in 50 mM HEPES pH 7.5, 0.01% BRIJ-35, 10 mM MgCl2, 2 mM MnCl2, 1 mM EGTA, 1 mM DTT. After the 1 hour Kinase Reaction incubation, 5 μL of a 1:64 dilution of Development Reagent B is added.

MAP4K2 (GCK) = molecular target: T1, MAP4K2 (GCK) (Homo sapiens, UniProt Q12851); test: Z'-LYTE SelectScreen biochemical kinase assay MAP4K2 (GCK)
T1 sequence (Q12851 1-820): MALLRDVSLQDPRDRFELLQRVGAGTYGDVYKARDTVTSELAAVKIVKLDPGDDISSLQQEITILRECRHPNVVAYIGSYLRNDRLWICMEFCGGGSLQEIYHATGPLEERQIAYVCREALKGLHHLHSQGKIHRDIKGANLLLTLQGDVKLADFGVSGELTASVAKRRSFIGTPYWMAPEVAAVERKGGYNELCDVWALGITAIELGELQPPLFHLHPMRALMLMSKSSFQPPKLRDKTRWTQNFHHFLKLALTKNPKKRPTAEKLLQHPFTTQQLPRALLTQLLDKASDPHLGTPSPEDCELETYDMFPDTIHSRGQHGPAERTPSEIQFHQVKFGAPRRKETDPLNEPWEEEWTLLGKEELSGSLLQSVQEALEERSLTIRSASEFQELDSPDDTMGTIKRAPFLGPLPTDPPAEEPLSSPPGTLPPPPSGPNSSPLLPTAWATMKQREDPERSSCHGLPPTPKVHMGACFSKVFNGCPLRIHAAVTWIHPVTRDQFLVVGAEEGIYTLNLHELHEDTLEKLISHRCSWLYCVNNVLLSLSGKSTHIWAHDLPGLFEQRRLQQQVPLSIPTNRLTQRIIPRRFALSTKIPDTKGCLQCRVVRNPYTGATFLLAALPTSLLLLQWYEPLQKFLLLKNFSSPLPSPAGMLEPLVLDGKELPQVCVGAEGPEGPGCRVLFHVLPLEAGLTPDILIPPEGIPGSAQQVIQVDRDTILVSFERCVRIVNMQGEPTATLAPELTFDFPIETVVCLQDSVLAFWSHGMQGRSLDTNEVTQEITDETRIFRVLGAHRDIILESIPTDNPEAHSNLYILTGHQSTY
From the text: as §1, §2, §3, §4, §5, §6, §7, §8
The 2×MAP4K2 (GCK)/Ser/Thr 07 mixture is prepared in 50 mM HEPES pH 7.5, 0.01% BRIJ-35, 10 mM MgCl2, 1 mM EGTA. The final 10 μL Kinase Reaction consists of 0.11-3 ng MAP4K2 (GCK) and 2 μM Ser/Thr 07 in 50 mM HEPES pH 7.5, 0.01% BRIJ-35, 10 mM MgCl2, 1 mM EGTA. After the 1 hour Kinase Reaction incubation, 5 μL of a 1:45000 dilution of Development Reagent A is added.

[1] = 10 μmolar compound concentration, ATP at Km app, read-out: FGFR2 inhibition
[2] = read-out: % Inhibition mean FGFR2
[3] = 10 μmolar compound concentration, ATP at Km app, read-out: MAP4K2 (GCK) inhibition
[4] = read-out: % Inhibition mean MAP4K2 (GCK)

Sequence of FGFR2 (P21802 22-821): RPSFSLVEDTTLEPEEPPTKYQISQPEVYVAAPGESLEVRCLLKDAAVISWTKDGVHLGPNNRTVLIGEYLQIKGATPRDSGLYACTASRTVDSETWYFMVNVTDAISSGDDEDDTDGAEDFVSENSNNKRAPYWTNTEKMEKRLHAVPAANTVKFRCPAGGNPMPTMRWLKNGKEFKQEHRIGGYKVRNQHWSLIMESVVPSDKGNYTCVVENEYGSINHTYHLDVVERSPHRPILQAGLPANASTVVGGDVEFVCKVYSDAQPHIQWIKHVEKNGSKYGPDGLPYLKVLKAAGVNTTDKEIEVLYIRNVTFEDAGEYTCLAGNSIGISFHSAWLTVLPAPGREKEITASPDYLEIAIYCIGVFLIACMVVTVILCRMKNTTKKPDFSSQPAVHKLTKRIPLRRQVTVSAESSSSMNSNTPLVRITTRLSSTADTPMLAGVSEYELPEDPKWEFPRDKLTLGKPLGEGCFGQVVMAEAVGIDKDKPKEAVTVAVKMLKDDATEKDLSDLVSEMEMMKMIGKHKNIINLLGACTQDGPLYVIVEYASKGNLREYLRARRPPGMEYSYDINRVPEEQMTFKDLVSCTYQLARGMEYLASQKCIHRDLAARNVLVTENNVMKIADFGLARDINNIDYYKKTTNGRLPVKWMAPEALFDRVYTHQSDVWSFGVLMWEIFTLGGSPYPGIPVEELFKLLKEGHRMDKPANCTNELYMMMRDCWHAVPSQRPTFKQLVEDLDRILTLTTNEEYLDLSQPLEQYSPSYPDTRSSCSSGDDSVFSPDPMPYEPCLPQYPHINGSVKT

| Structure (SMILES) | inhibition at 10 µM (FGFR2; [1]) | inhibition at 10 µM (FGFR2; [2]) | inhibition at 10 µM (MAP4K2 (GCK); [3]) | inhibition at 10 µM (MAP4K2 (GCK); [4]) | inhibition at 10 µM (FGFR2; read-out: % Inhibition mean) | inhibition at 10 µM (MAP4K2 (GCK); read-out: % Inhibition mean) |
| --- | --- | --- | --- | --- | --- | --- |
| Cc1cc(F)ccc1-c1cccn2nc(NC3CCc4c(cnn4C(C)C)C3)nc12 (stereo not drawn) [Example 44, [8-(4-fluoro-2-methyl-phenyl)-[1,2,4]triazolo[1,5-a]pyridine-2-yl]-(1-isopropyl-4,5,6,7-tetrahydro-1H-indazol-5-yl)-amine] | < 40% | 22% | < 40% | 26% | – | – |
| CC1(C)NC(=O)c2ccc(Nc3nc4c(-c5cccc(F)c5)cccn4n3)cc21 [Cpd. 302 in WO09155551, reference compound] | > 80% | – | > 80% | – | 98% | 99% |
| CCn1nnc2c1CCC(Nc1nc3c(-c4ccc(F)cc4C)cccn3n1)C2 (stereo not drawn) [Example 51, (1-Ethyl-4,5,6,7-tetrahydro-1H-benzotriazol-5-yl)-[8-(4-fluoro-2-methyl-phenyl)-[1,2,4]triazolo[1,5-a]pyridine-2-yl]-amine] | < 40% | 28% | < 40% | 22% | – | – |
| CCn1ncc2c1CCC(Nc1nc3c(-c4cncc(Cl)c4)cccn3n1)C2 (stereo not drawn) [Example 73, [8-(5-Chloro-pyridin-3-yl)-[1,2,4]triazolo[1,5-a]pyridine-2-yl]-(1-ethyl-4,5,6,7-tetrahydro-1H-indazol-5-yl)-amine] | < 40% | 26% | 40 to 80% | 49% | – | – |
| CCn1ncc2c1CC[C@H](Nc1nc3c(-c4ccc(F)c(Cl)c4)cccn3n1)C2 [Example S-61, (S)-[8-(3-Chloro-4-fluoro-phenyl)-[1,2,4]triazolo[1,5-a]pyridine-2-yl]-(1-ethyl-4,5,6,7-tetrahydro-1H-indazol-5-yl)-amine] | < 40% | 13% | < 40% | 12% | – | – |
| CCn1nc(Cl)c2c1CCC(Nc1nc3c(-c4ccc(F)cc4C)cccn3n1)C2 (stereo not drawn) [Example 48, (3-Chloro-1-ethyl-4,5,6,7-tetrahydro-1H-indazol-5-yl)-[8-(4-fluoro-2-methyl-phenyl)-[1,2,4]triazolo[1,5-a]pyridine-2-yl]-amine] | < 40% | 22% | < 40% | 16% | – | – |
| CCn1ncc2c1CCC(Nc1nc3c(-c4cccnc4OC)cccn3n1)C2 (stereo not drawn) [Example 69, (1-Ethyl-4,5,6,7-tetrahydro-1H-indazol-5-yl)-[8-(2-methoxy-pyridin-3-yl)-[1,2,4]triazolo[1,5-a]pyridine-2-yl]-amine] | < 40% | 1% | < 40% | 9% | – | – |
| CC1(C)C(=O)Nc2ccc(Nc3nc4c(-c5cccc(F)c5)cccn4n3)cc21 [Cpd. 263 in WO09155551, reference compound] | > 80% | – | > 80% | – | 102% | 98% |
| Cc1cc(F)ccc1-c1cccn2nc(NC3CCc4c(cnn4C)C3)nc12 (stereo not drawn) [Example 10, [8-(4-fluoro-2-methyl-phenyl)-[1,2,4]triazolo[1,5-a]pyridine-2-yl]-(1-methyl-4,5,6,7-tetrahydro-1H-indazol-5-yl)-amine] | < 40% | 14% | < 40% | 8% | – | – |
| CCCCn1ncc2c1CCC(Nc1nc3c(-c4ccc(F)cc4C)cccn3n1)C2 (stereo not drawn) [Example 46, [8-(4-fluoro-2-methyl-phenyl)-[1,2,4]triazolo[1,5-a]pyridine-2-yl]-(1-butyl-4,5,6,7-tetrahydro-1H-indazol-5-yl)-amine] | < 40% | 26% | < 40% | 19% | – | – |
| CCn1ncc2c1CCC(Nc1nc3c(-c4cnccc4OC)cccn3n1)C2 (stereo not drawn) [Example 68, (1-Ethyl-4,5,6,7-tetrahydro-1H-indazol-5-yl)-[8-(4-methoxy-pyridin-3-yl)-[1,2,4]triazolo[1,5-a]pyridine-2-yl]-amine] | < 40% | 28% | < 40% | 28% | – | – |
| CCc1nn(C)c2c1CCC(Nc1nc3c(-c4ccc(F)cc4C)cccn3n1)C2 (stereo not drawn) [Example 54, (3-Ethyl-1-methyl-4,5,6,7-tetrahydro-1H-indazol-6-yl)-[8-(4-fluoro-2-methyl-phenyl)-[1,2,4]triazolo[1,5-a]pyridine-2-yl]-amine] | < 40% | 25% | < 40% | 27% | – | – |
| CCCCCn1ncc2c1CCC(Nc1nc3c(-c4ccc(F)cc4C)cccn3n1)C2 (stereo not drawn) [Example 47, [8-(4-fluoro-2-methyl-phenyl)-[1,2,4]triazolo[1,5-a]pyridine-2-yl]-(1-pentyl-4,5,6,7-tetrahydro-1H-indazol-5-yl)-amine] | < 40% | 21% | < 40% | 11% | – | – |
| CCn1ncc2c1C(C)CC(Nc1nc3c(-c4cc(F)c(F)c(F)c4)cccn3n1)C2 (stereo not drawn) [Example 49, (1-Ethyl-7-methyl-4,5,6,7-tetrahydro-1H-indazol-5-yl)-[8-(3,4,5-trifluoro-phenyl)-[1,2,4]triazolo[1,5-a]pyridine-2-yl]-amine] | < 40% | 31% | < 40% | 17% | – | – |
| Fc1cccc(-c2cccn3nc(Nc4ccc5[nH]cnc5c4)nc23)c1 [Cpd. 293 in WO09155551, reference compound] | > 80% | – | > 80% | – | 90% | 94% |
